≈ marks a conversion by molar mass, not a printed value. Read-outs that look alike come from different tables or passages of the source.
Tests used:
Assay in all cases: in vitro antibacterial MIC, agar plate dilution
Type in all cases: cell-based
[1] = test system: Streptococcus faecalis VGH 84-69; conditions: Enterococcus faecalis, VGH8469, 18 h, 35° C., read-out: MIC
Summary of the method: (§1)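 Agar plate dilution on Mueller-Hinton agar, inoculum approximately 10^4 CFU per organism applied with a Steers replicator. MIC (mcg/ml) is the lowest compound concentration inhibiting visible growth after 18 hours at 35° C.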

[2] = test system: Staphylococcus aureus CMC 83-131; conditions: Staphylococcus aureus, CMC83131, 18 h, 35° C., read-out: MIC
Summary of the method: as §1

[3] = test system: Klebsiella pneumoniae CMC 84-31; conditions: Klebsiella pneumoniae, CMC8431, 18 h, 35° C., read-out: MIC
Summary of the method: as §1

[4] = test system: Serratia marcescens CMC 83-74; conditions: Serratia marcescens, CMC8374, 18 h, 35° C., read-out: MIC
Summary of the method: as §1

[5] = test system: Streptococcus faecalis UCI 85-30; conditions: Enterococcus faecalis, UCI8530, 18 h, 35° C., read-out: MIC
Summary of the method: as §1

[6] = test system: Streptococcus faecalis UCI 85-19; conditions: Enterococcus faecalis, UCI8519, 18 h, 35° C., read-out: MIC
Summary of the method: as §1

[7] = test system: Staphylococcus aureus VGH 84-45; conditions: Staphylococcus aureus, VGH8445, 18 h, 35° C., read-out: MIC
Summary of the method: as §1

[8] = test system: Pseudomonas aeruginosa VGH 84-4; conditions: Pseudomonas aeruginosa, VGH844, 18 h, 35° C., read-out: MIC
Summary of the method: as §1

[9] = test system: Pseudomonas aeruginosa K 84-16; conditions: Pseudomonas aeruginosa, K8416, 18 h, 35° C., read-out: MIC
Summary of the method: as §1

[10] = test system: Serratia marcescens MOR 84-41; conditions: Serratia marcescens, MOR8441, 18 h, 35° C., read-out: MIC
Summary of the method: as §1

[11] = test system: Morganella morganii VHG 84-12; conditions: Morganella morganii, VHG8412, 18 h, Morganella morganii VHG 84-12 (VGH 84-12 for Example 131), 35° C., read-out: MIC
Summary of the method: as §1

[12] = test system: Streptococcus faecalis CMC 83-120; conditions: Enterococcus faecalis, CMC83120, 18 h, 35° C., read-out: MIC
Summary of the method: as §1

[13] = test system: Escherichia coli MOR 84-20; conditions: 18 hours, 35° C.
Summary of the method: as §1

[14] = test system: Morganella morganii CMC 84-37; conditions: 18 hours, 35° C.
Summary of the method: as §1

[15] = test system: Streptococcus faecalis VGH 84-65; conditions: Enterococcus faecalis, VGH8465, 18 h, 35° C., read-out: MIC
Summary of the method: as §1

[16] = test system: Escherichia coli CMC 84-50; conditions: Escherichia coli, CMC8450, 18 h, 35° C., read-out: MIC
Summary of the method: as §1

[17] = test system: Proteus rettgeri IO 83-21; conditions: Providencia rettgeri, IO8321, 18 h, 35° C., read-out: MIC
Summary of the method: as §1

[18] = test system: Enterobacter cloacae K 84-10; conditions: Enterobacter cloacae, K8410, 18 h, 35° C., read-out: MIC
Summary of the method: as §1

[19] = test system: Staphylococcus aureus VGH 84-47; conditions: 18 hours, 35° C.
Summary of the method: as §1

[20] = test system: Escherichia coli ATCC 25922; conditions: 35° C.
Summary of the method: as §1

[21] = test system: Escherichia coli LL 311; conditions: Escherichia coli, LL311, 18 h, 35° C., read-out: MIC
Summary of the method: as §1

[22] = test system: Staphylococcus aureus Smith; conditions: Staphylococcus aureus, 18 h, 35° C., read-out: MIC
Summary of the method: as §1

[23] = test system: Escherichia coli CMC 84-11; conditions: Escherichia coli, CMC8411, 18 h, 35° C., read-out: MIC
Summary of the method: as §1

[24] = test system: Staphylococcus aureus K 82-26; conditions: Staphylococcus aureus, K8226, 18 h, 35° C., read-out: MIC
Summary of the method: as §1

[25] = test system: Serratia marcescens VGH 84-30; conditions: Serratia marcescens, VGH8430, 18 h, 35° C., read-out: MIC
Summary of the method: as §1

[26] = test system: Pseudomonas aeruginosa CMC 83-20; conditions: Pseudomonas aeruginosa, CMC8320, 18 h, 35° C., read-out: MIC
Summary of the method: as §1

[27] = test system: Enterobacter cloacae VGH 84-39; conditions: Enterobacter cloacae, VGH8439, 18 h, 35° C., read-out: MIC
Summary of the method: as §1

[28] = test system: Pseudomonas aeruginosa VGH 84-3; conditions: Pseudomonas aeruginosa, VGH843, 18 h, 35° C., read-out: MIC
Summary of the method: as §1

[29] = test system: Proteus rettgeri CMC 84-41; conditions: Providencia rettgeri, CMC8441, 18 h, 35° C., read-out: MIC
Summary of the method: as §1

[30] = test system: Klebsiella pneumoniae MOR 84-24; conditions: Klebsiella pneumoniae, MOR8424, 18 h, 35° C., read-out: MIC
Summary of the method: as §1

[31] = test system: Serratia marcescens K 84-18; conditions: Serratia marcescens, K8418, 18 h, 35° C., read-out: MIC
Summary of the method: as §1

[32] = test system: Morganella morganii CMC 84-38; conditions: Morganella morganii, CMC8438, 18 h, 35° C., read-out: MIC
Summary of the method: as §1

[33] = test system: Pseudomonas aeruginosa LL-1244; conditions: Pseudomonas aeruginosa, LL1244, 18 h, 35° C., read-out: MIC
Summary of the method: as §1

[34] = test system: Escherichia coli VGH 84-19; conditions: 18 hours, 35° C.
Summary of the method: as §1

[35] = test system: Klebsiella pneumoniae IO 83-5; conditions: Klebsiella pneumoniae, IO835, 18 h, 35° C., read-out: MIC
Summary of the method: as §1

[36] = test system: Citrobacter div. K 82-24; conditions: Citrobacter, DIV.K8224, 18 h, 35° C., read-out: MIC
Summary of the method: as §1

[37] = test system: Morganella morganii MOR 84-45; conditions: Morganella morganii, MOR8445, 18 h, 35° C., read-out: MIC
Summary of the method: as §1

[38] = test system: Enterobacter cloacae MOR 84-30; conditions: Enterobacter cloacae, MOR8430, 18 h, 35° C., read-out: MIC
Summary of the method: as §1

[39] = test system: Providencia stuarti CMC 83-3; conditions: Providencia, CMC833, 18 h, 35° C., read-out: MIC
Summary of the method: as §1

- MIC [1]: 4 µg/mL (≈ 9.79 µM)
- MIC [2]: 0.5 µg/mL (≈ 1.22 µM)
- MIC [3]: 0.5 µg/mL (≈ 1.22 µM)
- MIC [4]: > 16 µg/mL
- MIC [5]: 8 µg/mL (≈ 19.6 µM)
- MIC [6]: 2 µg/mL (≈ 4.9 µM)
- MIC [7]: 0.06 µg/mL (≈ 0.147 µM)
- MIC [8]: 8 µg/mL (≈ 19.6 µM)
- MIC [9]: 16 µg/mL (≈ 39.2 µM)
- MIC [10]: 1 µg/mL (≈ 2.45 µM)
- MIC [11]: 1 µg/mL (≈ 2.45 µM)
- MIC [12]: 4 µg/mL (≈ 9.79 µM)
- MIC [13]: 0.25 µg/mL (≈ 0.612 µM)
- MIC [14]: 0.25 µg/mL (≈ 0.612 µM)
- MIC [15]: 1 µg/mL (≈ 2.45 µM)
- MIC [16]: 0.5 µg/mL (≈ 1.22 µM)
- MIC [17]: 1 µg/mL (≈ 2.45 µM)
- MIC [18]: 0.12 µg/mL (≈ 0.294 µM)
- MIC [19]: 0.25 µg/mL (≈ 0.612 µM)
- MIC ([20]; 18 hours): 0.06 µg/mL (≈ 0.147 µM)
- MIC ([20]; Escherichia coli, ATCC25922, 18 h, read-out: MIC): 0.03 µg/mL (≈ 0.0735 µM)
- MIC [21]: 0.06 µg/mL (≈ 0.147 µM)
- MIC [22]: 0.06 µg/mL (≈ 0.147 µM)
- MIC [23]: 0.06 µg/mL (≈ 0.147 µM)
- MIC [24]: 4 µg/mL (≈ 9.79 µM)
- MIC [25]: 8 µg/mL (≈ 19.6 µM)
- MIC [26]: 16 µg/mL (≈ 39.2 µM)
- MIC [27]: 0.5 µg/mL (≈ 1.22 µM)
- MIC [28]: > 16 µg/mL
- MIC [29]: 0.12 µg/mL (≈ 0.294 µM)
- MIC [30]: 1 µg/mL (≈ 2.45 µM)
- MIC [31]: 0.5 µg/mL (≈ 1.22 µM)
- MIC [32]: 0.5 µg/mL (≈ 1.22 µM)
- MIC [33]: 8 µg/mL (≈ 19.6 µM)
- MIC [34]: 0.25 µg/mL (≈ 0.612 µM)
- MIC [35]: 1 µg/mL (≈ 2.45 µM)
- MIC [36]: 0.25 µg/mL (≈ 0.612 µM)
- MIC [37]: 0.5 µg/mL (≈ 1.22 µM)
- MIC [38]: 1 µg/mL (≈ 2.45 µM)
- MIC [39]: > 16 µg/mL
SMILES: O=C(O)c1cn(C2CC2)c2cc(N3CCNC(c4ccccn4)C3)c(F)cc2c1=O (stereo not shown) [Example 128, 1-Cyclopropyl-6-fluoro-1.4-dihydro-4-oxo-7-[3-(2-pyridinyl) -1-piperazinyl]-3-quinolinecarboxylic acid]

— patent US5210193A, “Piperazine derivatives” (American Cyanamid Company, priority 1990, dated 1993)
